# From US20130196954A1, “METHOD OF TREATING ACNE” (priority 2010, published 2013)
# Tests used:
# moderate or severe acne = experiment: Phase 2 randomized, double-blind, placebo-controlled clinical study, efficacy; assay type: in vivo, human; settings: ITT; for Reduction from baseline in inflammatory lesion count / Success Rate (IGA clear or almost clear): oral once daily
# Description: As used herein, “success rate” means the percentage of subjects who achieve a score of “clear” or “almost clear” by Investigator's Global Assessment (IGA) (Inflammatory): A phase 2, multi-center, randomized, double-blind, parallel group, placebo-controlled study was conducted. The treatments were (1) 40 mg doxycycline tablet containing 30 mg IR and 10 mg DR (CD2575/101); (2) doxycycline 100 mg capsules; and (3) placebos (double dummy), which were administered orally once daily. Patients having moderate or severe acne (25 to 75 inflammatory lesions on the face (including the nose) were subjects in the study. Total 660 subjects (220/group) were divided in a 1:1:1 randomization for the three treatments. The treatments lasted 16 weeks. The following were measured for efficacy studies: change from baseline to week 16 (LOCF, ITT) in inflammatory lesion counts (primary endpoint); success rate at week 16 (LOCF, ITT); percent change in inflammatory lesion counts from baseline to week 16 (LOCF, ITT); percent change in total lesion counts from baseline to week 16 (LOCF, ITT); change from baseline to week 16 (LOCF, ITT) in non-inflammatory lesion counts; global assessment for inflammatory lesions of truncal acne at baseline, week 12, and week 16/ET visit, etc. The investigator evaluated the subject's acne at every study visit using the Investigator's Global Assessment (Inflammatory) scale as that described above. The IGA scale in this study focused on inflammatory lesions as the mode of study drug action in acne vulgaris is primarily anti-inflammatory. Onset of efficacy was to be determined for the change in inflammatory lesions and for the success rate, by analyzing time points earlier than week 16
# [1] = Phase 2 clinical study, safety (adverse events); assay type: in vivo, human
# Description: A phase 2, multi-center, randomized, double-blind, parallel group, placebo-controlled study was conducted. The treatments were (1) 40 mg doxycycline tablet containing 30 mg IR and 10 mg DR (CD2575/101); (2) doxycycline 100 mg capsules; and (3) placebos (double dummy), which were administered orally once daily.
# Patients having moderate or severe acne (25 to 75 inflammatory lesions on the face (including the nose) were subjects in the study. Total 660 subjects (220/group) were divided in a 1:1:1 randomization for the three treatments. The treatments lasted 16 weeks.
# The safety studies included standard safety reporting. Adverse events of special interest included phototoxicity; pseudotumor cerebri; and pseudomembranous colitis. Vital signs were observed by the investigator at each visit. Lab tests were conducted at 0, 8 & 16 weeks.
# [2] = N = 216 (40 mg), N = 223 (100 mg)
structure (smiles),measurement,setting,value
"C[C@H]1c2cccc(O)c2C(=O)C2=C(O)[C@]3(O)C(=O)C(C(N)=O)=C(O)[C@@H](N(C)C)[C@@H]3[C@@H](O)[C@@H]21 [Doxycycline 100 mg, doxycycline]",Median % Change in Inflammatory Lesion Count,moderate or severe acne; Week 12 (LOCF),−46.7%
same,Median % change in Total Lesion Count,moderate or severe acne; Week 12 (LOCF),−30.6%
same,"Reduction in inflammatory lesion count, delta vs placebo",moderate or severe acne; Week 12 (LOCF),0.3
same,"Success Rate, delta vs placebo",moderate or severe acne; Week 12 (LOCF),−1.4
same,Reduction from baseline in inflammatory lesion count,moderate or severe acne; Week 12 (LOCF),12.2 (0.604)
same,Success Rate (IGA clear or almost clear),moderate or severe acne; Week 12 (LOCF),5.4% (0.536)
same,Median % Change in Inflammatory Lesion Count,moderate or severe acne; Week 16 (LOCF),−47.3%
same,Median % change in Total Lesion Count,moderate or severe acne; Week 16 (LOCF),−35.9%
same,"Reduction in inflammatory lesion count, delta vs placebo",moderate or severe acne; Week 16 (LOCF),0.3
same,"Success Rate, delta vs placebo",moderate or severe acne; Week 16 (LOCF),6.1
same,Reduction from baseline in inflammatory lesion count,moderate or severe acne; Week 16 (LOCF),12.9 (0.595)
same,Success Rate (IGA clear or almost clear),moderate or severe acne; Week 16 (LOCF),13.8% (0.035)
same,"drug related AEs (nausea, vomiting & headaches)",[1]; 16 weeks once daily oral,38
same,Total Number of AE(s),"[1]; 16 weeks once daily oral, N = 216 (40 mg), N = 223 (100 mg)",50
same,"Abdominal discomfort, number of subjects",[1]; [2],4
same,"Abdominal discomfort, percent of subjects",[1]; [2],(1.8%)
same,"Dizziness, number of subjects",[1]; [2],1
same,"Dizziness, percent of subjects",[1]; [2],(0.4%)
same,"Headache, number of subjects",[1]; [2],6
same,"Headache, percent of subjects",[1]; [2],(2.7%)
same,"Nausea, number of subjects",[1]; [2],12
same,"Nausea, percent of subjects",[1]; [2],(5.4%)
same,"Tinnitus, number of subjects",[1]; [2],0
same,"Total Number of Subjects with AE(s), number",[1]; [2],38
same,"Total Number of Subjects with AE(s), percent",[1]; [2],(17.0%)
same,"Urticaria, number of subjects",[1]; [2],2
same,"Urticaria, percent of subjects",[1]; [2],(0.9%)
same,"Vomiting, number of subjects",[1]; [2],14
same,"Vomiting, percent of subjects",[1]; [2],(6.3%)
same,"Vulvovaginal mycotic infection, number of subjects",[1]; [2],1
same,"Vulvovaginal mycotic infection, percent of subjects",[1]; [2],(0.4%)
